Consider seven compounds from article PMC4482694, “Machine Learning Models and Pathway Genome Data Base for Trypanosoma cruzi Drug Discovery” (PLoS Neglected Tropical Diseases, 2015).

Counter-ions that a name gives are not always drawn. Like-named read-outs stand apart in the source and are kept apart here. Where only a bound is given, the exact number is not on record here.

For one data set, the system named is T. cruzi CA-I/72. Description: Secondary screening (dose-response assay). Type of data set: cell-based, Trypanosoma cruzi. The protocol: (§1) T. cruzi CA-I/72 trypomastigotes were obtained from C2C12 infected-culture supernatants after 4–7 days of infection. Cultures were maintained at 37°C with 5% CO2. […] Compounds were added at 10 mM in 50 nl per well using a Biomek FX (Beckman Coulter) for a final 10 μM concentration in 50 μl total volume, and 2,500 parasites were added in 10 μl per well. The plate was incubated for 72 hours at 37°C with 5% CO2. After the incubation, the plate was fixed with the addition of 50 μl of 8% paraformaldehyde solution, followed by two successive washing steps using PBS. Finally, a staining solution containing 0.5 μg/ml of 4',6-diamidino-2-phenylindole (DAPI) was added to each well of the plate and incubated for at least 4 hours prior to reading. Images were acquired by an IN Cell Analyzer 2000 (GE Healthcare) and analyzed by IN Cell Analyzer Developer 1.6 software. […] Numbers of host cells and intracellular amastigotes were determined based on host cell and parasite nucleus quantification, providing a measure of growth inhibition during the first 72 h of post-infection treatment compared to untreated controls. […] The host cell viability was assessed based on the total number of cells divided by the average number of cells from untreated controls (0.1% DMSO), being <0.5 considered a cytotoxic compound. This assay was performed in duplicate.
The hit selection criteria: >50% activity at 10 μM and >0.5 host cell viability in the primary screening. To determine the potency of the hit compounds, we performed a dose-response assay. EC50 values of compounds were determined applying the same assay used in the primary screening. […] Then, 50 nl of each sample were diluted in 50 μl media (DMEM H-21) and added to the experimental plate followed by incubation at 37°C with 5% CO2 for 72 h.

Data set [1] concerns transgenic T.cruzi Brazil luc strain. Description: 4-day mouse model of infection, luciferase readout. It is filed as in vivo, Trypanosoma cruzi. The conditions noted are these: for Chagas mouse model (4 days treatment, luciferase): In vivo efficacy at 50 mg/kg bid (IP): Balb/c mice, 50 mg/kg b.i.d. IP, read at day 7 post-infection, benznidazole = 100%, vehicle = 0%. The text has this: To assess in vivo efficacy of test compounds, a 4-day mouse model of infection by transgenic T.cruzi Brazil luc strain expressing firefly luciferase was used as previously described. Six-week-old female Balb/c mice (average weight 20g) were obtained from Simonsen Labs (Gilroy, CA). All animal protocols were approved and carried out in accordance with the guidelines established by the Institutional Animal Care and Use Committee from UCSD (Protocol S14187). Mice were housed at a maximum of 5 per cage and kept in a specific-pathogen-free (SPF) room at 20 to 24°C under a 12-h light/12-h dark cycle and provided with sterilized water and chow ad libitum. To infect the mice, trypomastigotes of T. cruzi Brazil luc strain were used. The parasites were harvested from culture supernatant 7 days after the infection of C2C12 myocytes in T.75 culture flasks using DMEM media supplemented with 5% FBS. The harvested parasites were counted and the density was adjusted for 10^6 parasites per milliliter of DMEM media without FBS. For the mouse infection, 100 ul of the parasite solution was injected intraperitoneally (10^5 trypomastigotes) per mouse. Starting on day 3 the infected mice were treated with test compounds at 50 mg/kg administered in 20% Kolliphor, IP, b.i.d., for four consecutive days. Two control groups included untreated mice, which received a vehicle (20% Kolliphor HS 15, a.k.a. Solutol), and the positive control groups, which received 50 mg/kg benznidazole, IP, twice a day (b.i.d). At day 7 post-infection, the luminescent signal from infected mice was read upon injection of D-luciferin. The absolute numbers of measured photons/s/cm^2 were averaged between all five mice in each group. The average photons/s/cm^2 from the group treated with benznidazole was normalized as 100% efficacy and the average photons/s/cm^2 from the group treated with vehicle only was normalized as 0% efficacy. Using a linear correlation, the average photons/s/cm^2 of each compound was normalized in the same efficacy scale as the controls.

For data set [2], the target named is T. cruzi Tulahuen genetically modified to express Beta-galactosidase. The conditions noted are these: cited from earlier work; for EC50: Broad dataset, read-out: EC50 in the Broad dose response dataset.
The next data set deals with T. cruzi. Further details: method as in PMID 21912715. The settings on record: retest of Broad HTS hits in one study; cited from earlier work.
A further data set can be described thus: Host cell cytotoxicity. It is filed as cell-based. The conditions noted are these: mouse; C2C12 host cells. The protocol: as §1
The mark [3] stands for this setting: Trypanosoma cruzi, C2C12, 72 h, intracellular T. cruzi in C2C12 cells, 72 h, read-out: EC50.
[4] abbreviates: Trypanosoma cruzi, intracellular T. cruzi in C2C12 cells, 72 h, read-out: EC90.
The mark [5] stands for this setting: intracellular T. cruzi in C2C12 cells, 72 h, read-out: EC50.

With `COc1ccc(CCN(C)CCCC(C#N)(c2ccc(OC)c(OC)c2)C(C)C)cc1OC` (racemic) [SC-0005695, (±)-Verapamil hydrochloride], the concentration for an effect of 90% (EC90) – broadly, the concentration at which the effect reaches the 90% level – in the data set on T. cruzi CA-I/72 (Trypanosoma cruzi, C2C12, 72 h) was 143 nM. Besides, the EC50 (as a rule, the concentration needed to bring the measured effect to its halfway point) in the data set on T. cruzi CA-I/72 (intracellular T. cruzi in C2C12 cells, 72 h, listed as (±)-Verapamil hydrochloride) was 38.3 nM; with T. cruzi CA-I/72 (intracellular T. cruzi in C2C12 cells, 72 h, listed as verapamil), less than 1000 nM; in data set [2], less than 100 nM. Also, the “Chagas mouse model (4 days treatment, luciferase): In vivo efficacy at 50 mg/kg bid (IP)” value (“Chagas mouse model” for short) in data set [1] came out at 55.1%. Moreover, in the data set on T. cruzi, the IC50 – broadly, the concentration needed to halve the response being measured – is greater than 50000 nM.

Take `O=C(Cn1ccnc1[N+](=O)[O-])NCc1ccccc1` [Benznidazole]: the “Chagas mouse model” value in data set [1] is listed as 100%.

Regarding `COc1ccc2cc1Oc1ccc(cc1)C[C@H]1c3cc(c(OC)cc3CCN1C)Oc1c(OC)c(OC)cc3c1[C@H](C2)N(C)CC3` [SC-0011496, Tetrandrine], the EC50 in the data set on T. cruzi CA-I/72 (setting [3]) is less than 1000 nM; in the data set on T. cruzi CA-I/72 (setting [5]) it was 508 nM. For the same compound, the concentration for an effect of 90% (EC90) with T. cruzi CA-I/72 (setting [4]) was 1570 nM. Besides, the midpoint of cytotoxicity in “Host cell cytotoxicity”, the CC50 at 72 h, lay at 1300 nM. For the same compound, the “Chagas mouse model” value in data set [1] turned out to be 43.6%. Besides, the “Statistical significance of in vivo efficacy” value in data set [1] (Student t test vs vehicle at day 7, p≤ 0.05) was “does not appear to have statistically significant efficacy in vivo”. Moreover, the “Result in the larger Broad HTS screening dataset to identify inhibitors of replication” value in data set [2] is “inactive”.

Consider `O=C1OCCN1/N=C/c1ccc([N+](=O)[O-])o1` [SC-0011742, Furazolidone], for which the “Chagas mouse model” value in data set [1] (listed as Furazolidone, 50 mg/kg) is on record as 100.5%; in data set [1] (listed as furazolidone, 50 mg/kg) it was 100%.

For the compound `NC(=O)N/N=C/c1ccc([N+](=O)[O-])o1` [SC-0011754, Nitrofural], the EC50 with T. cruzi CA-I/72 (setting [3]) was less than 1000 nM; in the data set with T. cruzi CA-I/72 (setting [5]) it was 775 nM. Also, the EC90 in the data set on T. cruzi CA-I/72 (setting [4]) came to 6980 nM. In the data set “Host cell cytotoxicity”, the cytotoxic concentration (CC50) (usually the concentration at which the toxic effect on the cells reaches its halfway point) at 72 h is greater than 10000 nM.

Turning to `COc1ccc2nc3cc(Cl)ccc3c(Nc3cc(CN4CCCC4)c(O)c(CN4CCCC4)c3)c2n1` [SC-0011799, Pyronaridine], in the data set on T. cruzi CA-I/72 (setting [4]), the EC90 was 665 nM. The EC50 in the data set with T. cruzi CA-I/72 (intracellular T. cruzi in C2C12 cells, 72 h, listed as Pyronaridine, read-out: EC50) was 225 nM; in the data set with T. cruzi CA-I/72 (intracellular T. cruzi in C2C12 cells, 72 h, listed as pyronaridine, read-out: EC50), less than 1000 nM; in data set [2], less than 587 nM. The compound further yielded a CC50 at 72 h in the data set “Host cell cytotoxicity” of 3000 nM. In addition, the “Chagas mouse model” value in data set [1] was 85.2%.

Turning to `O=C(NCO)N/N=C/c1ccc([N+](=O)[O-])o1` [hydroxymethylnitrofurazone, Hydroxymethylnitrofurazone], the “Chagas mouse model” value in data set [1] (50 mg/kg) was 78.5%.
